Source: patent EP0672658B1, “Antithrombotic agents” (priority 1994, dated 1995)
Counter-ions that a name gives are not always drawn.

Experiments:
Trypsin = target: T1, Trypsin (Bos taurus, UniProt P00760); experiment: biochemical; design: species or system Bovine; details: read-out: Kass Trypsin (converted)
T1 sequence (P00760 24-246): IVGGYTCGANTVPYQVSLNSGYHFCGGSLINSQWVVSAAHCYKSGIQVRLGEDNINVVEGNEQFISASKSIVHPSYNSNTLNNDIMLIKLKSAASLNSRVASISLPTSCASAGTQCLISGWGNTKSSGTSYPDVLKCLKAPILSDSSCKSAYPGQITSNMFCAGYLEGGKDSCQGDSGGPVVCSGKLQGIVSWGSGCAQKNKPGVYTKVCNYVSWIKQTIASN
Method: By substantially following the procedures described above for human thrombin, and using other human blood coagulation system serine proteases and proteases of the fibrinolytic system with the appropriate chromogenic substrates, identified below, selectivity of the compounds of the present invention with respect to the coagulation factor serine proteases and with respect to the fibrinolytic system serine proteases are evaluated as well as their substantial lack of interference with serine proteases of the fibrinolytic system. Thrombin inhibitors preferably should spare fibrinolysis induced by urokinase, tissue plasminogen activator (t-PA) and streptokinase. This would be important to the therapeutic use of such agents as an adjunct to streptokinase, t-PA or urokinase thrombolytic therapy and to the use of such agents as an endogenous fibrinolysis-sparing (with respect to t-PA and urokinase) antithrombotic agent. In addition to the lack of interference with the amidase activity of the fibrinolytic proteases, such fibrinolytic system sparing can be studied by the use of human plasma clots and their lysis by the respective fibrinolytic plasminogen activators.
Human factors X, Xa, IXa, XIa, and XIIa are purchased from Enzyme Research Laboratories, South Bend, Indiana; human urokinase from Leo Pharmaceuticals, Denmark; and recombinant activated Protein C (aPC) is prepared at Eli Lilly and Co. substantially according to U.S. Patent 4,981,952. Chromogenic substrates: N-Benzoyl-Ile-Glu-Gly-Arg-p-nitroanilide (for factor Xa); N-Cbz-D-Arg-Gly-Arg-p-nitroanilide (for factor IXa assay as the factor Xa substrate); Pyroglutamyl-Pro-Arg-p-nitroanilide (for Factor XIa and for aPC); H-D-Pro-Phe-Arg-p-nitroanilide (for factor XIIa); and Pyroglutamyl-Gly-Arg-p-nitroanilide (for urokinase); are purchased from KabiVitrum, Stockholm, Sweden, or from Midwest Biotech, Fishers, Indiana. Bovine trypsin is purchased from Worthington Biochemicals, Freehold, New Jersey, and human plasma kallikrein from Kabi Vitrum, Stockholm, Sweden. Chromogenic substrate H-D-Pro-Phe-Arg-p-nitroanilide for plasma kallikrein is purchased from Kabi Vitrum, Stockholm, Sweden. N-Benzoyl-Phe-Val-Arg-p-nitroanilide, the substrate for human thrombin and for trypsin, is synthesized according to procedures described above for the compounds of the present invention, using known methods of peptide coupling from commercially available reactants or purchased from Midwest Biotech, Fishers, Indiana.

human or animal plasma [1] = experiment: Anticoagulation determination in plasma: activated partial thromboplastin time (APTT); format: biochemical; details: concentration doubling activated partial thromboplastin time
Method: (§1) Dog plasma and rat plasma is obtained from conscious mixed-breed hounds (either sex, Hazelton-LRE, Kalamazoo, Michigan, U.S.A.) or from anesthetized male Sprague-Dawley rats (Harlan Sprague-Dawley, Inc., Indianapolis, Indiana, U.S.A.) by venipuncture into 3.8 percent citrate. Fibrinogen is prepared from in-date ACD human blood as the fraction I-2 according to previous procedures and specifications. Smith, Biochem. J., 185, 1-11 (1980); and Smith, et al., Biochemistry, 11, 2958-2967 (1972). Human fibrinogen is also purchased as 98 percent pure/plasmin free from American Diagnostica, Greenwich, Connecticut. Coagulation reagents ACTIN, Thromboplastin, and Human plasma are from Baxter Healthcare Corp., Dade Division, Miami, Florida. Bovine thrombin from Parke-Davis (Ann Detroit, Michigan) is used for coagulation assays in plasma.
(§2) Coagulation assay procedures are as previously described. Smith, et al., Thrombosis Research, 50, 163-174 (1988). A CoAScreener coagulation instrument (American LABor, Inc.) is used for all coagulation assay measurements. The prothrombin time (PT) is measured by adding 0.05 mL saline and 0.05 mL Thromboplastin-C reagent to 0.05 mL test plasma. The activated partial thromboplastin time (APTT) is measured by incubation of 0.05 mL test plasma with 0.05 mL Actin reagent for 120 seconds followed by 0.05 mL CaCl2 (0.02 M). The thrombin time (TT) is measured by adding 0.05 mL saline and 0.05 mL thrombin (10 NIH units/mL) to 0.05 mL test plasma. The compounds of Formula I are added to human or animal plasma over a wide range of concentrations to determine prolongation effects on the APTT, PT, and TT assays. Linear extrapolations are performed to estimate the concentrations required to double the clotting time for each assay.

human or animal plasma [2] = experiment: Anticoagulation determination in plasma: prothrombin time (PT); format: biochemical; details: concentration doubling prothrombin time
Method: as §1, §2

human or animal plasma [3] = experiment: Anticoagulation determination in plasma: thrombin time (TT); format: biochemical; details: concentration doubling thrombin time
Method: as §1, §2

Human Thrombin = Human Thrombin (Homo sapiens, UniProt P00734); experiment: biochemical; details: read-out: Kass Human Thrombin (converted)

SMILES	Kd (Trypsin)	Human Plasma Anticoagulation 2x Clotting time (ng/mL) APTT (human or animal plasma [1])	Human Plasma Anticoagulation 2x Clotting time (ng/mL) PT (human or animal plasma [2])	Human Plasma Anticoagulation 2x Clotting time (ng/mL) TT (human or animal plasma [3])	Kd (Human Thrombin)
CCS(=O)(=O)N[C@H](Cc1ccccc1)C(=O)N1CCC[C@H]1C(=O)NCCc1cccc(NC(=N)N)c1 [Example 37, EtSO2-D-Phe-Pro-m-NHCH2CH2C6H4NHC(NH)NH2·HCl]	> 111000 nM	>9,000 ng/mL	>9,000 ng/mL	>9,000 ng/mL	50000 nM
Nc1ccc(CNC(=O)[C@@H]2CCCN2C(=O)[C@@H](CC2CCCCC2)NCC(=O)O)cc1 [Example 62, HO2CCH2-D-Cha-Pro-4-NHCH2C6H4NH2·HCl]	–	–	–	54 ng/mL	132 nM
Nc1ccc(CCNC(=O)[C@@H]2CCCN2C(=O)[C@@H](CC2CCCCC2)NCC(=O)O)cc1 [Example 63, HO2CCH2-D-Cha-Pro-4-NHCH2CH2C6H4NH2·HCl]	–	–	–	680 ng/mL	3230 nM
N=C(N)c1ccc(CNC(=O)[C@@H]2CCCN2C(=O)[C@@H](CC2CCCCC2)NCC(=O)O)s1 [Example 65]	1.75 nM	–	–	1 ng/mL	–
N=C(N)c1ccc(CNC(=O)[C@@H]2CCCN2C(=O)[C@@H](CC2CCCCC2)NCC(=O)O)nc1 [Example 66, HO2CCH2-D-Cha-Pro-2-NHCH2-5-amidinopyridine·HCl]	217 nM	180 ng/mL	270 ng/mL	7.9 ng/mL	8.33 nM
N=C(N)C1CCC(CNC(=O)[C@@H]2CCCN2C(=O)[C@@H](CC2CCCCC2)NCC(=O)O)NC1 (stereo partly drawn) [Example 67, HO2CCH2-D-Cha-Pro-2-NHCH2-5-amidinopiperidine·HCl]	–	1,800 ng/mL	1,300 ng/mL	34. ng/mL	90.9 nM
N=C(N)C1=CNC(CNC(=O)[C@@H]2CCCN2C(=O)[C@@H](CC2CCCCC2)NCC(=O)O)CC1 (stereo partly drawn) [Example 68, HO2CCH2-D-Cha-Pro-2-NHCH2-5-amidino-5,6-dehydro-piperidine·HCl]	–	49 ng/mL	190 ng/mL	4. ng/mL	1.67 nM
N=C(N)c1ccc(CNC(=O)[C@@H]2CCCN2C(=O)[C@@H](CC2CCCCC2)NCC(=O)O)nn1 [Example 69, HO2CCH2-D-Cha-Pro-3-NHCH2-6-amidinopyridazine·HCl]	270 nM	110 ng/mL	220 ng/mL	5. ng/mL	2.94 nM
N=C(N)N1CC=C(CNC(=O)[C@@H]2CCCN2C(=O)[C@@H](CC2CCCCC2)NCC(=O)O)CC1 [Example 70, HO2CCH2-D-Cha-Pro-4-NHCH2-1-amidino-3,4-dehydro-piperidine·HCl]	102 nM	160 ng/mL	180 ng/mL	2 ng/mL	2.33 nM
Nc1cc(CNC(=O)[C@@H]2CCCN2C(=O)[C@@H](CC2CCCCC2)NCC(=O)O)ccn1 [Example 73, HO2CCH2-D-Cha-Pro-4-NHCH2-2-aminopyridine·HCl]	–	340 ng/mL	330 ng/mL	21 ng/mL	35.7 nM
Nc1ccc(CNC(=O)[C@@H]2CCCN2C(=O)[C@@H](CC2CCCCC2)NCC(=O)O)cn1 [Example 74, HO2CCH2-D-Cha-Pro-5-NHCH2-2-aminopyridine·HCl]	–	420 ng/mL	350 ng/mL	20 ng/mL	34.5 nM
Nc1ccc(CCNC(=O)[C@@H]2CCCN2C(=O)[C@@H](CC2CCCCC2)NCC(=O)O)cn1 [Example 75, HO2CCH2-D-Cha-Pro-5-NHCH2CH2-2-aminopyridine·HCl]	–	–	–	–	2220 nM
Nc1cc(CCNC(=O)[C@@H]2CCCN2C(=O)[C@@H](CC2CCCCC2)NCC(=O)O)ccn1 [Example 76, HO2CCH2-D-Cha-Pro-4-NHCH2CH2-2-aminopyridine·HCl]	2780 nM	490 ng/mL	560 ng/mL	29 ng/mL	83.3 nM
Nc1ccc(CNC(=O)[C@@H]2CCCN2C(=O)[C@@H](CC2CCCCC2)NCC(=O)O)cc1F [Example 77, HO2CCH2-D-Cha-Pro-4-NHCH2-2-F-aniline·HCl]	–	1,600 ng/mL	890 ng/mL	53 ng/mL	90.9 nM
NCc1ccc(CNC(=O)[C@@H]2CCCN2C(=O)[C@@H](CC2CCCCC2)NCC(=O)O)cc1 [Example 78, HO2CCH2-D-Cha-Pro-4-NHCH2C6H4CH2NH2·HCl]	116 nM	430 ng/mL	760 ng/mL	46 ng/mL	90.9 nM
NCC1CCC(CNC(=O)[C@@H]2CCCN2C(=O)[C@@H](CC2CCCCC2)NCC(=O)O)CC1 (stereo partly drawn) [Example 79, HO2CCH2-D-Cha-Pro-4-NHCH2C6H10CH2NH2·HCl]	4170 nM	1,700 ng/mL	2,400 ng/mL	140 ng/mL	500 nM
CCS(=O)(=O)N[C@H](CC1CCCCC1)C(=O)N1CCC[C@H]1C(=O)NCc1ccc(N)cc1F [Example 82, EtSO2-D-Cha-Pro-4-NHCH2-3-F-C6H3NH2·HCl]	–	3,800 ng/mL	3,000 ng/mL	130 ng/mL	200 nM
